We go through 25 compounds from US8143394B2, “Pyrido(3,2-d)pyrimidines useful for treating viral infections” (Gilead Sciences, Inc., priority 2006, dated 2012).

Data set [1] has as its system HCV replicon. In words: Anti-HCV replicon assay (EC50, luciferase readout). In kind it is cell-based. The settings on record: Hepatitis C virus, 72 h; human hepatoma Huh-7 cell line harbouring a HCV replicon; 3 days; luciferase; read-out: EC50. As for the experimental part:
(§1) The anti-HCV activity of the pyrido[3,2-d]pyrimidine derivatives of this invention was tested in a human hepatoma Huh-7 cell line harbouring a HCV replicon. The assay comprised the following steps:
(§2) Step 1: Compound Preparation and Serial Dilution
(§3) • 1. for water soluble pyrido[3,2-d]pyrimidine derivatives, a volume of 500 μL of solution in cell media (DMEM, 10% FBS, P/S, L-Glutamine) was prepared with a concentration being twice the concentration of the starting final serial dilution concentration. A volume of 150 μL of the solution was added to the pre-specified wells in column 1 of a 96-well cell culture plate (PerkinElmer, white plate, cat. #6005181, for EC50 assay; black plate, cat. #6005182 for CC50 assay). The rest of the plate, columns 2-12, was filled with 100 μL of cell media. The plate was then placed on a Precision 2000 Workstation to start the serial dilution. Compounds were diluted three times each step from column 1 to column 10. Column 11 was used as a blank control (no compound added). • 2. for pyrido[3,2-d]pyrimidine derivatives requiring DMSO to dissolve, serial dilution is performed in 50% DMSO in a 384-well plate. A solution containing a compound at 100-fold concentration of the starting final serial dilution concentration was prepared in 50% DMSO and added to the pre-specified wells in column 1 of a polypropylene 384-well plate. The plate was then placed on a Precision 2000 Workstation to start the serial dilution. After the serial dilution, a volume of 2 μL of the solution was transferred from the 384-well plate to a 96-well cell culture plate containing 100 μL of cell media on a Biomek FX Workstation. The DMSO concentration in the final assay condition was 0.5% after cells are added to the plate and the total volume in each well is brought to 200 μL. Step 2: to each well of the serial dilution plate prepared above, 100 μL of cell media containing 6000 suspended Huh-7 HCV replicon cells was added with a Multidrop workstation. The plates were incubated for 3 days at 37° C. with 5% CO2. Step 3: Detection: • a) for the EC50 assay, the media in a 96-well cell culture plate was aspirated with a Biotek EL405 plate-washer. A volume of 200 μL of a solution containing a 1:1 mixture of cell-lysis buffer (Promega, Luciferase Cell Culture Lysis 5X Reagent, cat. #E1531) and luciferase substrate solution (Promega, Luciferase Assay, cat. # E4550) was added to each well of the plate with Multidrop. The plate was incubated for 30 minutes at room temperature before the luminescence signal was measured with a TopCount plate-reader. • b) for the CC50 assay, a volume of 100 μL of pre-mixed CellTiter-Glo (Promega, cat. # G7572) solution is added directly to the cell culture in each well of the plate and the luminescence signal is measured with a TopCount plate-reader after 10 minutes of incubation at room temperature.
(§4) Results in table 13 are expressed by the following data: • the 50% effective concentration (EC50), i.e. the concentration that protects 50% of the cell monolayer from virus-induced cythopathic effect, and • the 50% cytostatic concentration (CC50), i.e. the concentration that results in 50% inhibition of cell growth.
(In general: A replicon is a self-replicating genome or part of one, used to study replication in cells.)

Data set [2] can be described thus: CC50 assay (CellTiter-Glo) in Huh-7 HCV replicon cells. The conditions noted are these: human, 50% cytostatic concentration. Type of data set: cell-based, human. How it is done:
as §1, §2, §3, §4
Background: In ATP-based viability assays light output follows the ATP content of the culture.

Some results are limits rather than exact numbers.

`CCOc1nc(N)nc2ccc(-c3cccc(NS(=O)(=O)C4CCS(=O)(=O)C4)c3)nc12` (centres unmarked) [Example 51, 1,1-Dioxo-tetrahydro-1?^6-thiophene-3-sulfonic acid [3-(2-amino-4-ethoxy-pyrido[3,2-d]pyrimidin-6-yl)-phenyl]-amide]: the EC50 (commonly the concentration that produces a half-maximal response) in data set [1] is below 300 nM. Moreover, the CC50 (as a rule, the concentration that lowers cell viability or growth by half) at 3 days in data set [2] was above 20000 nM.

On to `CCOc1nc(N)nc2ccc(-c3cccc(NS(=O)(=O)C(C)C)c3)nc12` [Example 52, Propane-2-sulfonic acid[3-(2-amino-4-ethoxy-pyrido[3,2-d]pyrimidin-6-yl)-phenyl]-amide], for which the EC50 in data set [1] is below 300 nM. The compound further had a CC50 at 3 days in data set [2] below 10000 nM.

Take `CCOc1nc(N)nc2ccc(-c3cccc(NS(=O)(=O)C4CC4)c3)nc12` [Example 53, Cyclopropanesulfonic acid[3-(2-amino-4-ethoxy-pyrido[3,2-d]pyrimidin-6-yl)-phenyl]-amide]: in data set [1], the EC50 was below 300 nM. Besides, in data set [2], the CC50 at 3 days was above 20000 nM.

Turning to `CCOc1nc(N)nc2ccc(-c3cccc(NS(=O)(=O)CC)c3)nc12` [Example 54, Ethanesulfonic acid [3-(2-amino-4-ethoxy-pyrido[3,2-d]pyrimidin-6-yl)-phenyl]-amide], the EC50 in data set [1] was below 300 nM. Moreover, in data set [2], the CC50 at 3 days was above 20000 nM.

Turning to `CCOc1nc(N)nc2ccc(-c3ccc(NS(=O)(=O)CC)cc3)nc12` [Example 55, ethanesulfonic acid [4-(2-amino-4-ethoxy-pyrido[3,2-d]pyrimidin-6-yl)-phenyl]-amide], the EC50 in data set [1] was above 1000 nM. Besides, in data set [2], the CC50 at 3 days was above 20000 nM.

Take `CCOc1nc(N)nc2ccc(-c3ccc(C(=O)NCC(C)C)cc3)nc12` [Example 56, 4-(2-Amino-4-ethoxy-pyrido[3,2-d]pyrimidin-6-yl)-N-isobutyl-benzamide]: the EC50 in data set [1] was in the range of 300 to 1000 nM. This compound also returned a CC50 at 3 days in data set [2] above 20000 nM.

For the compound `CCCCNC(=O)c1ccc(-c2ccc3nc(N)nc(OCC)c3n2)cc1` [Example 57, 4-(2-Amino-4-ethoxy-pyrido[3,2-d]pyrimidin-6-yl)-N-butyl-benzamide], the EC50 in data set [1] lay in the range of 300 to 1000 nM. This compound also gave a CC50 at 3 days in data set [2] above 20000 nM.

On to `CCOc1nc(N)nc2ccc(-c3ccc(C(=O)NC(C)(C)C)cc3)nc12` [Example 58, 4-(2-Amino-4-ethoxy-pyrido[3,2-d]pyrimidin-6-yl)-N-tert-butyl-benzamide], for which the EC50 in data set [1] was above 1000 nM. In data set [2], this compound had a CC50 at 3 days above 20000 nM.

Turning to `CCOc1nc(N)nc2ccc(-c3ccc(C(=O)NC4CCCC4)cc3)nc12` [Example 59, 4-(2-Amino-4-ethoxy-pyrido[3,2-d]pyrimidin-6-yl)-N-cyclopentyl-benzamide], in data set [1], the EC50 lay within 300 to 1000 nM. The same compound showed a CC50 at 3 days in data set [2] above 20000 nM.

As for `CCOc1nc(N)nc2ccc(-c3ccc(C(=O)NOC)cc3)nc12` [Example 60, 4-(2-Amino-4-ethoxy-pyrido[3,2-d]pyrimidin-6-yl)-N-methoxy-benzamide], the EC50 in data set [1] is above 1000 nM. This compound yielded a CC50 at 3 days in data set [2] above 20000 nM.

On to `CCOc1nc(N)nc2ccc(-c3ccc(C(=O)NC(C)C)cc3)nc12` [Example 61, 4-(2-Amino-4-ethoxy-pyrido[3,2-d]pyrimidin-6-yl)-N-isopropyl-benzamide], for which, in data set [1], the EC50 was 300 to 1000 nM. Besides, the CC50 at 3 days in data set [2] is above 20000 nM.

For the compound `CCOc1nc(N)nc2ccc(-c3ccc(C(=O)NC4CC4)c(Cl)c3)nc12` [Example 62, 4-(2-Amino-4-ethoxy-pyrido[3,2-d]pyrimidin-6-yl)-2-chloro-N-cyclopropyl-benzamide], the EC50 in data set [1] is above 1000 nM. In addition, in data set [2], the CC50 at 3 days was above 20000 nM.

As to `CCOc1nc(N)nc2ccc(-c3ccc(C(=O)NCCN(C)C)cc3)nc12` [Example 63, 4-(2-Amino-4-ethoxy-pyrido[3,2-d]pyrimidin-6-yl)-N-(2-dimethylamino-ethyl)-benzamide], in data set [1], the EC50 is below 300 nM. The same compound gave a CC50 at 3 days in data set [2] of 10000 to 20000 nM.

`CC(C)CNC(=O)c1ccc(-c2ccc3nc(N)nc(OC(C)C)c3n2)cc1` [Example 64, 4-(2-Amino-4-isopropoxy-pyrido[3,2-d]pyrimidin-6-yl)-N-isobutyl-benzamide]: the EC50 in data set [1] is 300 to 1000 nM. In addition, the CC50 at 3 days in data set [2] is above 20000 nM.

In the case of `CC(C)Oc1nc(N)nc2ccc(-c3ccc(C(=O)NC4CCCCC4)cc3)nc12` [Example 65, 4-(2-Amino-4-isopropoxy-pyrido[3,2-d]pyrimidin-6-yl)-N-cyclohexyl-benzamide], the EC50 in data set [1] was above 1000 nM. For the same compound, the CC50 at 3 days in data set [2] is above 20000 nM.

Regarding `CCCCNC(=O)c1ccc(-c2ccc3nc(N)nc(OC(C)C)c3n2)cc1` [Example 66, 4-(2-Amino-4-isopropoxy-pyrido[3,2-d]pyrimidin-6-yl)-N-n-butyl-benzamide], the EC50 in data set [1] is 300 to 1000 nM. In addition, in data set [2], the CC50 at 3 days was above 20000 nM.

Take `CC(C)Oc1nc(N)nc2ccc(-c3ccc(C(=O)NC(C)(C)C)cc3)nc12` [Example 67, 4-(2-Amino-4-isopropoxy-pyrido[3,2-d]pyrimidin-6-yl)-N-tert-butyl-benzamide]: in data set [1], the EC50 is 300 to 1000 nM. In addition, in data set [2], the CC50 at 3 days is above 20000 nM.

Turning to `CC(C)Oc1nc(N)nc2ccc(-c3ccc(C(=O)NC4CCCC4)cc3)nc12` [Example 68, 4-(2-Amino-4-isopropoxy-pyrido[3,2-d]pyrimidin-6-yl)-N-cyclopentyl-benzamide], the concentration for a half-maximal effect (EC50) in data set [1] lay in the range of 300 to 1000 nM. In data set [2], this compound yielded a CC50 at 3 days above 20000 nM.

Consider `CC(C)NC(=O)c1ccc(-c2ccc3nc(N)nc(OC(C)C)c3n2)cc1` [Example 69, 4-(2-Amino-4-isopropoxy-pyrido[3,2-d]pyrimidin-6-yl)-N-isopropyl-benzamide], for which the EC50 in data set [1] is below 300 nM. In addition, the CC50 at 3 days in data set [2] was above 20000 nM.

Consider `CONC(=O)c1ccc(-c2ccc3nc(N)nc(OC(C)C)c3n2)cc1` [Example 70, 4-[2-Amino-4-isopropoxy-pyrido[3,2-d]pyrimidin-6-yl]-N-methoxy-benzamide], for which the EC50 in data set [1] is below 300 nM. This compound also registered a CC50 at 3 days in data set [2] above 20000 nM.

With `CNC(=O)c1ccc(-c2ccc3nc(N)nc(OC(C)C)c3n2)cc1Cl` [Example 71, 4-(2-Amino-4-isopropoxy-pyrido[3,2-d]pyrimidin-6-yl)-2-chloro-N-methyl-benzamide], the EC50 in data set [1] was above 1000 nM. Moreover, the CC50 at 3 days in data set [2] was above 20000 nM.

Consider `CC(C)Oc1nc(N)nc2ccc(-c3ccc(C(=O)NC4CC4)c(Cl)c3)nc12` [Example 72, 4-(2-Amino-4-isopropoxy-pyrido[3,2-d]pyrimidin-6-yl)-2-chloro-N-cyclopropyl-benzamide], for which the 50% effective concentration (EC50) in data set [1] was above 1000 nM. In addition, the CC50 at 3 days in data set [2] was above 20000 nM.

Turning to `CC(C)Oc1nc(N)nc2ccc(-c3ccc(C(=O)NC4CC4)cc3)nc12` [Example 73, 4-(2-Amino-4-isopropoxy-pyrido[3,2-d]pyrimidin-6-yl)-N-cyclopropyl-benzamide], in data set [1], the EC50 is below 300 nM. In addition, the CC50 at 3 days in data set [2] is above 20000 nM.

For the compound `COc1nc(N)nc2ccc(-c3ccc(C(=O)NC4CC4)cc3)nc12` [Example 74, 4-(2-Amino-4-methoxy-pyrido[3,2-d]pyrimidin-6-yl)-N-cyclopropyl-benzamide], the EC50 in data set [1] was 300 to 1000 nM. In data set [2], this compound yielded a CC50 at 3 days of 10000 to 20000 nM.

For the compound `COCCOc1nc(N)nc2ccc(-c3ccc(C(=O)NC(C)C)cc3)nc12` [Example 75, 4-[2-Amino-4-(2-methoxy-ethoxy)-pyrido[3,2-d]pyrimidin-6-yl]-N-isopropyl-benzamide], the EC50 in data set [1] is 300 to 1000 nM. The same compound yielded a CC50 at 3 days in data set [2] above 20000 nM.
